Earlier results on one compound are cited in patent US8426470B2, “Method for alleviating signs and symptoms of spasticity” (Sun Pharmaceutical Industries Ltd., priority 2006, dated 2013).

One data set has as its system spasticity. To be noted: in vivo.

Consider `NCC(CC(=O)O)c1ccc(Cl)cc1` (centres unmarked) [Baclofen, 4-amino-3-(4-chlorophenyl)-butanoic acid], for which, in the data set on spasticity, the “lowest concentration in plasma at which a significant reduction in spasticity was observed” value is 90 ng/mL. Moreover, under “in vivo”, the Plasma elimination half-life result is reported as “approximately 3.5 hours”, the “concentrations in the cerebrospinal fluid (CSF) relative to those in the plasma” value is listed as “about 12%” and the “elimination half-life from the CSF” value is 4 to 5 h. For the same compound, the “fraction metabolized in the liver” value (remainder excreted mainly by the kidneys in unchanged form) was 15%.
